Data: the supplement of paper PMC10307832

Legend:
Test in all cases: relative viability (nuclei count vs DMSO), 5 days (fraction); higher = more cells survive
MK-2206 + Alpelisib = compound: NC1(c2ccc(-c3nc4ccn5c(=O)[nH]nc5c4cc3-c3ccccc3)cc2)CCC1 [MK-2206] + Cc1nc(NC(=O)N2CCC[C@H]2C(N)=O)sc1-c1ccnc(C(C)(C)C(F)(F)F)c1 [Alpelisib] (partner 2 µM)
In short: (§1)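 Lung cancer cell lines were seeded in 1536-well plates and dosed by pin tool the next day, with either a single drug or a fixed anchor-drug dose combined with five library-drug doses (not always all listed) spaced in √10 steps. Five days later, one step fixed the cells and stained their nuclei (final 0.05% Triton X-100, 1% formaldehyde, 1 ug/ml Hoechst), and nuclei were counted on 4× images. Relative viability is the nuclei count in treated wells divided by the count in vehicle wells, and each value is the median of duplicate plates.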

Pictilisib + Vorinostat = compound: CS(=O)(=O)N1CCN(Cc2cc3nc(-c4cccc5[nH]ncc45)nc(N4CCOCC4)c3s2)CC1 [Pictilisib] + O=C(CCCCCCC(=O)Nc1ccccc1)NO [Vorinostat] (partner 1 µM)
In short: as §1

MK-2206 + Luminespib = compound: NC1(c2ccc(-c3nc4ccn5c(=O)[nH]nc5c4cc3-c3ccccc3)cc2)CCC1 [MK-2206] + CCNC(=O)c1noc(-c2cc(C(C)C)c(O)cc2O)c1-c1ccc(CN2CCOCC2)cc1 [Luminespib] (partner 0.01 µM)
In short: as §1

Pictilisib + Tozasertib = compound: CS(=O)(=O)N1CCN(Cc2cc3nc(-c4cccc5[nH]ncc45)nc(N4CCOCC4)c3s2)CC1 [Pictilisib] + Cc1cc(Nc2cc(N3CCN(C)CC3)nc(Sc3ccc(NC(=O)C4CC4)cc3)n2)n[nH]1 [Tozasertib] (partner 0.1 µM)
In short: as §1

Pictilisib + Dasatinib = compound: CS(=O)(=O)N1CCN(Cc2cc3nc(-c4cccc5[nH]ncc45)nc(N4CCOCC4)c3s2)CC1 [Pictilisib] + Cc1nc(Nc2ncc(C(=O)Nc3c(C)cccc3Cl)s2)cc(N2CCN(CCO)CC2)n1 [Dasatinib] (partner 0.075 µM)
In short: as §1

Cell Line | relative viability (MK-2206 + Alpelisib; first compound 0.01 µM) | relative viability (MK-2206 + Alpelisib; first compound 0.03162 µM) | relative viability (MK-2206 + Alpelisib; first compound 0.3162 µM) | relative viability (MK-2206 + Alpelisib; first compound 1 µM) | relative viability (Pictilisib + Vorinostat; first compound 0.02 µM) | relative viability (Pictilisib + Vorinostat; first compound 0.06325 µM) | relative viability (Pictilisib + Vorinostat; first compound 0.6325 µM) | relative viability (Pictilisib + Vorinostat; first compound 2 µM) | relative viability (MK-2206 + Luminespib; first compound 0.01 µM) | relative viability (MK-2206 + Luminespib; first compound 0.03162 µM) | relative viability (MK-2206 + Luminespib; first compound 0.3162 µM) | relative viability (MK-2206 + Luminespib; first compound 1 µM) | relative viability (Pictilisib + Tozasertib; first compound 0.02 µM) | relative viability (Pictilisib + Tozasertib; first compound 0.06325 µM) | relative viability (Pictilisib + Tozasertib; first compound 0.6325 µM) | relative viability (Pictilisib + Tozasertib; first compound 2 µM) | relative viability (Pictilisib + Dasatinib; first compound 0.02 µM) | relative viability (Pictilisib + Dasatinib; first compound 0.06325 µM) | relative viability (Pictilisib + Dasatinib; first compound 0.6325 µM) | relative viability (Pictilisib + Dasatinib; first compound 2 µM)
LOU-NH91 | 0.73 | 0.796 | 0.667 | 0.682 | 1.09 | 0.901 | 0.797 | 0.651 | 0.344 | 0.303 | 0.32 | 0.373 | 0.744 | 0.664 | 0.566 | 0.495 | 0.581 | 0.546 | 0.443 | 0.359
NCI-H1792 | 0.673 | 0.652 | 0.706 | 0.773 |  |  |  |  | 0.467 | 0.455 | 0.473 | 0.394 |  |  |  |  | 0.811 | 0.795 | 0.417 | 0.228
NCI-H1651 | 0.921 | 0.906 | 0.938 | 0.898 | 0.519 | 0.551 | 0.538 | 0.344 | 0.865 | 0.888 | 0.808 | 0.965 | 0.637 | 0.567 | 0.544 | 0.286 | 0.35 | 0.387 | 0.358 | 0.201
A549 | 0.841 | 0.791 | 0.534 | 0.529 |  |  |  |  |  |  |  |  |  |  |  |  |  |  |  | 
HCC-366 | 0.526 | 0.48 | 0.244 | 0.212 | 0.45 | 0.368 | 0.226 | 0.118 |  |  |  |  | 0.19 | 0.0882 | 0.0364 | 0.0156 | 0.537 | 0.566 | 0.193 | 0.0747
EKVX | 0.761 | 0.904 | 0.843 | 0.82 | 0.734 | 0.538 | 0.56 | 0.254 | 0.991 | 0.872 | 0.801 | 0.69 | 0.369 | 0.324 | 0.317 | 0.215 | 0.534 | 0.414 | 0.303 | 0.16
NCI-H1993 | 0.73 | 0.668 | 0.663 | 0.652 | 0.713 | 0.639 | 0.494 | 0.436 | 0.44 | 0.827 | 0.671 | 0.565 | 0.483 | 0.567 | 0.5 | 0.529 | 0.508 | 0.467 | 0.483 | 0.58
NCI-H522 |  |  |  |  | 0.857 | 0.866 | 0.757 | 0.608 | 1.28 | 1.31 | 1.17 | 1.19 | 0.52 | 0.542 | 0.444 | 0.397 | 0.75 | 0.984 | 0.79 | 0.664
NCI-H1703 | 0.355 | 0.366 | 0.317 | 0.416 |  |  |  |  |  |  |  |  |  |  |  |  |  |  |  | 
NCI-H23 | 0.705 | 0.805 | 0.784 | 0.779 | 0.636 | 0.722 | 0.349 | 0.263 | 0.214 | 0.215 | 0.19 | 0.211 | 0.326 | 0.413 | 0.294 | 0.35 | 0.864 | 0.863 | 0.487 | 0.234
HCC-827 | 1.07 | 1.05 | 0.821 | 0.816 | 0.827 | 0.811 | 0.829 | 0.559 | 0.638 | 0.723 | 0.421 | 0.636 | 0.436 | 0.441 | 0.312 | 0.2 | 0.357 | 0.242 | 0.183 | 0.136
PC-3 [JPC-3] | 0.985 | 1.01 | 1.02 | 1.04 | 0.953 | 0.548 | 0.613 | 0.418 | 0.601 | 0.652 | 0.627 | 0.705 | 0.84 | 0.893 | 0.736 | 0.784 | 0.965 | 1.02 | 1.03 | 0.555
NCI-H1355 | 0.886 | 0.813 | 0.789 | 0.783 | 0.62 | 0.624 | 0.589 | 0.257 | 0.799 | 0.689 | 0.752 | 0.696 | 0.582 | 0.474 | 0.484 | 0.183 | 0.645 | 0.711 | 0.469 | 0.331
NCI-H727 | 0.636 | 0.571 | 0.404 | 0.456 | 1.04 | 1.29 | 1.11 | 0.867 | 0.328 | 0.306 | 0.337 | 0.345 | 0.614 | 0.542 | 0.568 | 0.486 | 0.319 | 0.38 | 0.292 | 0.342
IA-LM | 0.809 | 0.869 | 0.578 | 0.544 | 0.917 | 0.97 | 0.881 | 0.373 |  |  |  |  |  |  |  |  |  |  |  | 
SW 900 |  |  |  |  | 0.695 | 0.579 | 0.382 | 0.231 | 0.167 | 0.197 | 0.175 | 0.17 | 0.651 | 0.63 | 0.562 | 0.334 | 0.577 | 0.547 | 0.264 | 0.255
NCI-H1648 |  |  |  |  | 0.393 | 0.378 | 0.239 | 0.19 |  |  |  |  | 0.377 | 0.36 | 0.455 | 0.246 |  |  |  | 
NCI-H1563 | 0.934 | 0.764 | 0.695 | 0.656 |  |  |  |  | 0.528 | 0.518 | 0.577 | 0.477 |  |  |  |  | 0.431 | 0.39 | 0.356 | 0.316
NCI-H2342 |  |  |  |  | 0.672 | 0.814 | 0.695 | 0.529 | 0.751 | 0.655 | 0.77 | 0.677 | 0.46 | 0.474 | 0.409 | 0.276 | 0.263 | 0.305 | 0.289 | 0.267
ChaGo-K-1 |  |  |  |  | 0.797 | 0.773 | 0.64 | 0.609 | 0.668 | 0.661 | 0.541 | 0.679 | 0.227 | 0.21 | 0.161 | 0.17 | 0.628 | 0.682 | 0.517 | 0.384
Calu-6 | 1.13 | 1.01 | 0.994 | 0.909 |  |  |  |  |  |  |  |  |  |  |  |  |  |  |  | 
NCI-H1299 | 1.03 | 1.05 | 1.03 | 1.03 |  |  |  |  |  |  |  |  |  |  |  |  |  |  |  | 
EBC-1 | 0.767 | 0.843 | 0.388 | 0.28 |  |  |  |  |  |  |  |  |  |  |  |  |  |  |  | 
